Laboratory results: PubChem BioAssay AID2060906 (Molecular Pharmacology Branch, DTP, NCI, 2025)

System: 485176-168-R4-J1-PDC complex spheroid growth
Assay: Anticancer human tumor 485176-168-R4-J1-PDC patient-derived pancreatic adenocarcinoma cell line growth inhibition [RAS]
Conditions: for IC50: curve of first compound; for viability, T/C: stronger effect = lower value
In short: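 Tumour cells grown as complex spheroids with HUVEC endothelial cells and mesenchymal stem cells, treated with RAS pathway inhibitor combinations. Each agent spans half-log steps from near clinical Cmax, or 10 microM where Cmax is unknown.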

[1] = second compound 0.0316 µM, first compound 0.0316 µM
[2] = second compound 0.0316 µM, first compound 0.1 µM
[3] = second compound 0.0316 µM, first compound 0.316 µM
[4] = second compound 0.0316 µM, first compound 1 µM
[5] = second compound 0.0316 µM, first compound 3.16 µM
[6] = second compound 0.0316 µM, first compound 10 µM
[7] = second compound 0.1 µM, first compound 0.0316 µM
[8] = second compound 0.1 µM, first compound 0.1 µM
[9] = second compound 0.1 µM, first compound 0.316 µM
[10] = second compound 0.1 µM, first compound 1 µM
[11] = second compound 0.1 µM, first compound 3.16 µM
[12] = second compound 0.1 µM, first compound 10 µM
[13] = second compound 0.316 µM, first compound 0.0316 µM
[14] = second compound 0.316 µM, first compound 0.1 µM
[15] = second compound 0.316 µM, first compound 0.316 µM
[16] = second compound 0.316 µM, first compound 1 µM
[17] = second compound 0.316 µM, first compound 3.16 µM
[18] = second compound 0.316 µM, first compound 10 µM
[19] = second compound 1 µM, first compound 0.0316 µM
[20] = second compound 1 µM, first compound 0.1 µM
[21] = second compound 1 µM, first compound 0.316 µM
[22] = second compound 1 µM, first compound 1 µM
[23] = second compound 1 µM, first compound 3.16 µM
[24] = second compound 1 µM, first compound 10 µM
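Also: spheroids exposed to compounds for seven days before readout.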
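For viability, T/C in this document: luminescence viability expressed relative to DMSO vehicle wells set as 100%.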

CC1(O)CCCC1n1c(=O)c(C(F)F)cc2cnc(NC3CCN(S(C)(=O)=O)CC3)nc21 (stereo unspecified) + C#Cc1c(F)ccc2cc(O)cc(-c3ncc4c(N5CC6CCC(C5)N6)nc(OCC56CCCN5CC(F)C6)nc4c3F)c12
IC50 (second compound 0.0316 µM): 2540 nM | IC50 (second compound 0.1 µM): 2970 nM | IC50 (second compound 0.316 µM): 3630 nM | IC50 (second compound 1 µM): 2080 nM | IC50 (second compound 3.16 µM): 2210 nM | IC50 (second compound 10 µM): 2900 nM | viability, T/C [1]: 95% | viability, T/C [2]: 66.2% | viability, T/C [3]: 60.5% | viability, T/C [4]: 79.6% | viability, T/C [5]: 44.1% | viability, T/C [6]: 2.88% | viability, T/C [7]: 78.7% | viability, T/C [8]: 76.5% | viability, T/C [9]: 68.7% | viability, T/C [10]: 61.2% | viability, T/C [11]: 53.6% | viability, T/C [12]: 2.44% | viability, T/C [13]: 89.9% | viability, T/C [14]: 72.2% | viability, T/C [15]: 68.3% | viability, T/C [16]: 66.9% | viability, T/C [17]: 60.4% | viability, T/C [18]: 3.62% | viability, T/C [19]: 91.5% | viability, T/C [20]: 81.4% | viability, T/C [21]: 66.8% | viability, T/C [22]: 64.7% | viability, T/C [23]: 47.2% | viability, T/C [24]: 1.8% | viability, T/C (second compound 3.16 µM, first compound 0.0316 µM): 104% | viability, T/C (second compound 3.16 µM, first compound 0.1 µM): 84.9% | viability, T/C (second compound 3.16 µM, first compound 0.316 µM): 66.2% | viability, T/C (second compound 3.16 µM, first compound 1 µM): 62.2% | viability, T/C (second compound 3.16 µM, first compound 3.16 µM): 58% | viability, T/C (second compound 3.16 µM, first compound 10 µM): 2.91% | viability, T/C (second compound 10 µM, first compound 0.0316 µM): 89.1% | viability, T/C (second compound 10 µM, first compound 0.1 µM): 70.8% | viability, T/C (second compound 10 µM, first compound 0.316 µM): 82.7% | viability, T/C (second compound 10 µM, first compound 1 µM): 57.1% | viability, T/C (second compound 10 µM, first compound 3.16 µM): 55.9% | viability, T/C (second compound 10 µM, first compound 10 µM): 2.88%

CCC(CC)c1cc(NC2CCC(N)C2)n2nccc2n1 (stereo unspecified) + C=CC(=O)N1CCN(c2nc(OCC3CCCN3C)nc3c(F)c(-c4nc(N)cc(C)c4C(F)(F)F)c(Cl)cc23)C(C)C1
IC50 (second compound 0.00316 µM): 1540 nM | IC50 (second compound 0.01 µM): 1450 nM | IC50 (second compound 0.0316 µM): 1460 nM | IC50 (second compound 0.1 µM): 1680 nM | IC50 (second compound 0.316 µM): 1510 nM | IC50 (second compound 1 µM): 1460 nM | viability, T/C (second compound 0.00316 µM, first compound 0.0316 µM): 103% | viability, T/C (second compound 0.00316 µM, first compound 0.1 µM): 101% | viability, T/C (second compound 0.00316 µM, first compound 0.316 µM): 102% | viability, T/C (second compound 0.00316 µM, first compound 1 µM): 78.5% | viability, T/C (second compound 0.00316 µM, first compound 3.16 µM): 3.09% | viability, T/C (second compound 0.00316 µM, first compound 10 µM): 0.53% | viability, T/C (second compound 0.01 µM, first compound 0.0316 µM): 111% | viability, T/C (second compound 0.01 µM, first compound 0.1 µM): 98.3% | viability, T/C (second compound 0.01 µM, first compound 0.316 µM): 77.1% | viability, T/C (second compound 0.01 µM, first compound 1 µM): 72.9% | viability, T/C (second compound 0.01 µM, first compound 3.16 µM): 3.14% | viability, T/C (second compound 0.01 µM, first compound 10 µM): 0.53% | viability, T/C [1]: 101% | viability, T/C [2]: 103% | viability, T/C [3]: 103% | viability, T/C [4]: 72.9% | viability, T/C [5]: 2.99% | viability, T/C [6]: 0.57% | viability, T/C [7]: 97.7% | viability, T/C [8]: 104% | viability, T/C [9]: 93.3% | viability, T/C [10]: 88.8% | viability, T/C [11]: 3.12% | viability, T/C [12]: 0.5% | viability, T/C [13]: 87.8% | viability, T/C [14]: 93.5% | viability, T/C [15]: 95.3% | viability, T/C [16]: 76.2% | viability, T/C [17]: 3.3% | viability, T/C [18]: 0.53% | viability, T/C [19]: 94.8% | viability, T/C [20]: 110% | viability, T/C [21]: 89.6% | viability, T/C [22]: 73.3% | viability, T/C [23]: 2.65% | viability, T/C [24]: 0.64%

CCN1CCN(Cc2ccc(Nc3ncc(F)c(-c4cc(F)c5nc(C)n(C(C)C)c5c4)n3)nc2)CC1 + CCn1c(-c2cccnc2C(C)OC)c2c3cc(ccc31)N1CCOC(CC(NC(=O)C(C(C)C)N(C)C(=O)C3(F)CCN(C(=O)C#CC(C)(C)N(C)C)CC3)C(=O)N3CCCC(N3)C(=O)OCC(C)(C)C2)C1
IC50 (second compound 0.000949 µM): > 1000 nM | IC50 (second compound 0.003 µM): > 1000 nM | IC50 (second compound 0.00949 µM): > 1000 nM | IC50 (second compound 0.03 µM): > 1000 nM | IC50 (second compound 0.0949 µM): > 1000 nM | IC50 (second compound 0.3 µM): > 1000 nM | viability, T/C (second compound 0.000949 µM, first compound 0.00316 µM): 93.4% | viability, T/C (second compound 0.000949 µM, first compound 0.01 µM): 103% | viability, T/C (second compound 0.000949 µM, first compound 0.0316 µM): 100% | viability, T/C (second compound 0.000949 µM, first compound 0.1 µM): 83.7% | viability, T/C (second compound 0.000949 µM, first compound 0.316 µM): 96.5% | viability, T/C (second compound 0.000949 µM, first compound 1 µM): 64.5% | viability, T/C (second compound 0.003 µM, first compound 0.00316 µM): 92% | viability, T/C (second compound 0.003 µM, first compound 0.01 µM): 92.4% | viability, T/C (second compound 0.003 µM, first compound 0.0316 µM): 89.6% | viability, T/C (second compound 0.003 µM, first compound 0.1 µM): 99.3% | viability, T/C (second compound 0.003 µM, first compound 0.316 µM): 74.2% | viability, T/C (second compound 0.003 µM, first compound 1 µM): 67.8% | viability, T/C (second compound 0.00949 µM, first compound 0.00316 µM): 101% | viability, T/C (second compound 0.00949 µM, first compound 0.01 µM): 101% | viability, T/C (second compound 0.00949 µM, first compound 0.0316 µM): 94.3% | viability, T/C (second compound 0.00949 µM, first compound 0.1 µM): 89.1% | viability, T/C (second compound 0.00949 µM, first compound 0.316 µM): 74.5% | viability, T/C (second compound 0.00949 µM, first compound 1 µM): 75% | viability, T/C (second compound 0.03 µM, first compound 0.00316 µM): 86.2% | viability, T/C (second compound 0.03 µM, first compound 0.01 µM): 91% | viability, T/C (second compound 0.03 µM, first compound 0.0316 µM): 87.6% | viability, T/C (second compound 0.03 µM, first compound 0.1 µM): 72.8% | viability, T/C (second compound 0.03 µM, first compound 0.316 µM): 72% | viability, T/C (second compound 0.03 µM, first compound 1 µM): 67.4% | viability, T/C (second compound 0.0949 µM, first compound 0.00316 µM): 104% | viability, T/C (second compound 0.0949 µM, first compound 0.01 µM): 85.2% | viability, T/C (second compound 0.0949 µM, first compound 0.0316 µM): 84.4% | viability, T/C (second compound 0.0949 µM, first compound 0.1 µM): 75.9% | viability, T/C (second compound 0.0949 µM, first compound 0.316 µM): 80% | viability, T/C (second compound 0.0949 µM, first compound 1 µM): 74% | viability, T/C (second compound 0.3 µM, first compound 0.00316 µM): 80.7% | viability, T/C (second compound 0.3 µM, first compound 0.01 µM): 84.4% | viability, T/C (second compound 0.3 µM, first compound 0.0316 µM): 73.2% | viability, T/C (second compound 0.3 µM, first compound 0.1 µM): 75.2% | viability, T/C (second compound 0.3 µM, first compound 0.316 µM): 75.9% | viability, T/C (second compound 0.3 µM, first compound 1 µM): 57.4%
